According to the supplement of paper PMC9013687:

Columns and labels:
Danio rerio embryo [1] = test: EC50 Curvature_Increase; conditions: exposure time: 2 dpf
Description: (§1)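 Zebrafish embryos (UFZ-OBI strain) were exposed from 2 hpf for 48 h (2 dpf) or 96 h (4 dpf) at 28 °C; spontaneous tail coiling was scored at 25 hpf. Morphological features from automated image analysis (FishInspector), heart rate and locomotor response were fitted with drc models. Quantal endpoints were dichotomised at 2.5 SD from controls and fitted with a log-logistic model; heart rate, pigmentation and STC were normalised to the replicate control mean. Betamethasone was tested as betamethasone dipropionate, diflorasone as diflorasone diacetate.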

Danio rerio embryo [2] = test: EC20 LMR dark; higher = less potent; conditions: exposure time: 4 dpf
Description: as §1

Danio rerio embryo [3] = test: EC10 Eye-jaw distance_Decrease; higher = less potent; conditions: exposure time: 4 dpf
Description: as §1

Danio rerio embryo [4] = test: EC20 Eye-jaw distance_Decrease; higher = less potent; conditions: exposure time: 4 dpf
Description: as §1

Danio rerio embryo [5] = conditions: exposure time: 4 dpf
Description: as §1

Danio rerio embryo [6] = test: EC10 Otolith-eye distance_Decrease; higher = less potent; conditions: exposure time: 4 dpf
Description: as §1

Danio rerio embryo [7] = test system: Danio rerio embryo
Description: as §1

Danio rerio embryo [8] = test: EC20 Body length_Decrease; higher = less potent
Description: as §1

Danio rerio embryo [9] = test: EC20 Bladder size_Decrease; higher = less potent; conditions: exposure time: 4 dpf
Description: as §1

Danio rerio embryo [10] = test: EC50 Eye size_Decrease
Description: as §1

Danio rerio embryo [11] = test: EC10 Bladder size_Decrease; higher = less potent; conditions: exposure time: 4 dpf
Description: as §1

Danio rerio embryo [12] = test: EC20 Curvature_Increase; higher = less potent; conditions: exposure time: 2 dpf
Description: as §1

Danio rerio embryo [13] = test: EC50 Eye-jaw distance_Decrease; conditions: exposure time: 4 dpf
Description: as §1

Danio rerio embryo [14] = test: EC10 LMR dark; higher = less potent; conditions: exposure time: 4 dpf
Description: as §1

Danio rerio embryo [15] = test: EC50 Otolith-eye distance_Decrease; conditions: exposure time: 4 dpf
Description: as §1

Danio rerio embryo [16] = test: EC10 Curvature_Increase; higher = less potent; conditions: exposure time: 2 dpf
Description: as §1

Danio rerio embryo [17] = test: EC50 Yolk sac size_Increase; conditions: exposure time: 4 dpf
Description: as §1

Danio rerio embryo [18] = test: EC20 Otolith-eye distance_Decrease; higher = less potent; conditions: exposure time: 4 dpf
Description: as §1

Danio rerio embryo [19] = test: EC20 Pericard size_Increase; higher = less potent
Description: as §1

Danio rerio embryo [20] = test: EC50 Bladder size_Decrease; conditions: exposure time: 4 dpf
Description: as §1

Danio rerio embryo [21] = test: EC10 Body length_Decrease; higher = less potent
Description: as §1

Danio rerio embryo [22] = test: EC20 Any effect; higher = less potent
Description: as §1

Danio rerio embryo [23] = test: EC50 Pericard size_Increase
Description: as §1

Danio rerio embryo [24] = test: EC10 Pericard size_Increase; higher = less potent
Description: as §1

Danio rerio embryo [25] = test: EC10 Yolk sac size_Increase; higher = less potent; conditions: exposure time: 4 dpf
Description: as §1

Danio rerio embryo [26] = test: EC50 Body length_Decrease
Description: as §1

Danio rerio embryo [27] = test: EC20 Yolk sac size_Increase; higher = less potent; conditions: exposure time: 4 dpf
Description: as §1

Danio rerio embryo [28] = test: EC50 Head trunk angle_Decrease; conditions: exposure time: 2 dpf
Description: as §1

Danio rerio embryo [29] = test: spontaneous tail coiling frequency (coils/min/embryo); higher = more spontaneous movement; conditions: 25 hpf
Description: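 Spontaneous tail coilings of zebrafish embryos exposed from 2 hpf were recorded at 24-25 hpf in 1-min videos and detected by a KNIME workflow from grey-value variance. Betamethasone was tested as the dipropionate, diflorasone as the diacetate.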

Danio rerio embryo [30] = test: EC10 Any effect; higher = less potent
Description: as §1

CSc1nc2cc(Cl)c(Oc3cccc(Cl)c3Cl)cc2[nH]1 [Triclabendazole]
Conditions	EC10 Bladder size Decrease [µM]	EC10 Curvature Increase [µM]	EC10 Eye-jaw distance Decrease [µM]	EC10 LMR dark [µM]	EC10 Otolith-eye distance Decrease [µM]	EC10 Yolk sac size Increase [µM]	EC20 Bladder size Decrease [µM]	EC20 Curvature Increase [µM]	EC20 Eye-jaw distance Decrease [µM]	EC20 LMR dark [µM]	EC20 Otolith-eye distance Decrease [µM]	EC20 Yolk sac size Increase [µM]	EC50 Bladder size Decrease [µM]	EC50 Curvature Increase [µM]	EC50 Eye-jaw distance Decrease [µM]	EC50 Head trunk angle Decrease [µM]	EC50 LMR dark [µM]	EC50 Otolith-eye distance Decrease [µM]	EC50 Yolk sac size Increase [µM]
Danio rerio embryo [1]	–	–	–	–	–	–	–	–	–	–	–	–	–	1.98	–	–	–	–	–
Danio rerio embryo [2]	–	–	–	–	–	–	–	–	–	0.24	–	–	–	–	–	–	–	–	–
Danio rerio embryo [3]	–	–	0.695	–	–	–	–	–	–	–	–	–	–	–	–	–	–	–	–
Danio rerio embryo [4]	–	–	–	–	–	–	–	–	0.708	–	–	–	–	–	–	–	–	–	–
Danio rerio embryo [5]	–	–	–	–	–	–	–	–	–	–	–	–	–	–	–	–	0.403	–	–
Danio rerio embryo [6]	–	–	–	–	0.538	–	–	–	–	–	–	–	–	–	–	–	–	–	–
Danio rerio embryo [9]	–	–	–	–	–	–	0.475	–	–	–	–	–	–	–	–	–	–	–	–
Danio rerio embryo [11]	0.462	–	–	–	–	–	–	–	–	–	–	–	–	–	–	–	–	–	–
Danio rerio embryo [12]	–	–	–	–	–	–	–	1.81	–	–	–	–	–	–	–	–	–	–	–
Danio rerio embryo [13]	–	–	–	–	–	–	–	–	–	–	–	–	–	–	0.731	–	–	–	–
Danio rerio embryo [14]	–	–	–	0.178	–	–	–	–	–	–	–	–	–	–	–	–	–	–	–
Danio rerio embryo [15]	–	–	–	–	–	–	–	–	–	–	–	–	–	–	–	–	–	0.796	–
Danio rerio embryo [16]	–	1.71	–	–	–	–	–	–	–	–	–	–	–	–	–	–	–	–	–
Danio rerio embryo [17]	–	–	–	–	–	–	–	–	–	–	–	–	–	–	–	–	–	–	0.691
Danio rerio embryo [18]	–	–	–	–	–	–	–	–	–	–	0.622	–	–	–	–	–	–	–	–
Danio rerio embryo [20]	–	–	–	–	–	–	–	–	–	–	–	–	0.497	–	–	–	–	–	–
Danio rerio embryo [25]	–	–	–	–	–	0.458	–	–	–	–	–	–	–	–	–	–	–	–	–
Danio rerio embryo [27]	–	–	–	–	–	–	–	–	–	–	–	0.533	–	–	–	–	–	–	–
Danio rerio embryo [28]	–	–	–	–	–	–	–	–	–	–	–	–	–	–	–	2.05	–	–	–

Conditions	EC10 Any effect [µM]	EC10 Body length Decrease [µM]	EC10 Pericard size Increase [µM]	EC20 Any effect [µM]	EC20 Body length Decrease [µM]	EC20 Pericard size Increase [µM]	EC50 Any effect [µM]	EC50 Body length Decrease [µM]	EC50 Eye size Decrease [µM]	EC50 Pericard size Increase [µM]	EC50 Pigmentation increase [µM]	EC50 STC decrease [µM]	spontaneous tail coiling frequency
Danio rerio embryo [7], exposure time: 2 dpf	–	–	–	–	–	–	1.34	–	–	–	–	–	–
Danio rerio embryo [7], exposure time: 4 dpf	–	–	–	–	–	–	0.556	–	–	–	0.69	–	–
Danio rerio embryo [7], exposure time: 25 h	–	–	–	–	–	–	–	–	–	–	–	0.076	–
Danio rerio embryo [8], exposure time: 2 dpf	–	–	–	–	0.85	–	–	–	–	–	–	–	–
Danio rerio embryo [8], exposure time: 4 dpf	–	–	–	–	0.738	–	–	–	–	–	–	–	–
Danio rerio embryo [10], exposure time: 2 dpf	–	–	–	–	–	–	–	–	1.72	–	–	–	–
Danio rerio embryo [10], exposure time: 4 dpf	–	–	–	–	–	–	–	–	0.644	–	–	–	–
Danio rerio embryo [19], exposure time: 2 dpf	–	–	–	–	–	1.01	–	–	–	–	–	–	–
Danio rerio embryo [19], exposure time: 4 dpf	–	–	–	–	–	0.775	–	–	–	–	–	–	–
Danio rerio embryo [21], exposure time: 2 dpf	–	0.672	–	–	–	–	–	–	–	–	–	–	–
Danio rerio embryo [21], exposure time: 4 dpf	–	0.586	–	–	–	–	–	–	–	–	–	–	–
Danio rerio embryo [22], exposure time: 2 dpf	–	–	–	1.04	–	–	–	–	–	–	–	–	–
Danio rerio embryo [22], exposure time: 4 dpf	–	–	–	0.411	–	–	–	–	–	–	–	–	–
Danio rerio embryo [23], exposure time: 2 dpf	–	–	–	–	–	–	–	–	–	2.14	–	–	–
Danio rerio embryo [23], exposure time: 4 dpf	–	–	–	–	–	–	–	–	–	0.782	–	–	–
Danio rerio embryo [24], exposure time: 2 dpf	–	–	0.651	–	–	–	–	–	–	–	–	–	–
Danio rerio embryo [24], exposure time: 4 dpf	–	–	0.772	–	–	–	–	–	–	–	–	–	–
Danio rerio embryo [26], exposure time: 2 dpf	–	–	–	–	–	–	–	1.27	–	–	–	–	–
Danio rerio embryo [26], exposure time: 4 dpf	–	–	–	–	–	–	–	1.09	–	–	–	–	–
Danio rerio embryo [29], 0.139 µM	–	–	–	–	–	–	–	–	–	–	–	–	0.65
Danio rerio embryo [29], 0.488205 µM	–	–	–	–	–	–	–	–	–	–	–	–	1.35
Danio rerio embryo [29], 0.577 µM	–	–	–	–	–	–	–	–	–	–	–	–	1.03
Danio rerio embryo [29], 0.732308 µM	–	–	–	–	–	–	–	–	–	–	–	–	1.05
Danio rerio embryo [29], 0.835 µM	–	–	–	–	–	–	–	–	–	–	–	–	1.49
Danio rerio embryo [29], 1.086 µM	–	–	–	–	–	–	–	–	–	–	–	–	1.13
Danio rerio embryo [29], 1.09846 µM	–	–	–	–	–	–	–	–	–	–	–	–	0.655
Danio rerio embryo [29], 1.412 µM	–	–	–	–	–	–	–	–	–	–	–	–	0.667
Danio rerio embryo [29], 1.64769 µM	–	–	–	–	–	–	–	–	–	–	–	–	1.2
Danio rerio embryo [29], 1.835 µM	–	–	–	–	–	–	–	–	–	–	–	–	0.75
Danio rerio embryo [29], 2.386 µM	–	–	–	–	–	–	–	–	–	–	–	–	0.583
Danio rerio embryo [29], 2.47154 µM	–	–	–	–	–	–	–	–	–	–	–	–	0.315
Danio rerio embryo [29], 3.70731 µM	–	–	–	–	–	–	–	–	–	–	–	–	0.06
Danio rerio embryo [30], exposure time: 2 dpf	0.893	–	–	–	–	–	–	–	–	–	–	–	–
Danio rerio embryo [30], exposure time: 4 dpf	0.344	–	–	–	–	–	–	–	–	–	–	–	–
